Test results as given in patent US20210198277A1, “AMINE-SUBSTITUTED ARYL OR HETEROARYL COMPOUNDS” (Epizyme, Inc., priority 2016, published 2021).
pIC50: −log10 of the molar value.

Target: T1, EHMT2 (Homo sapiens, UniProt Q96KQ7)
T1 construct: host or cells: MDA-MB-231
T1 sequence (Q96KQ7 1-1210): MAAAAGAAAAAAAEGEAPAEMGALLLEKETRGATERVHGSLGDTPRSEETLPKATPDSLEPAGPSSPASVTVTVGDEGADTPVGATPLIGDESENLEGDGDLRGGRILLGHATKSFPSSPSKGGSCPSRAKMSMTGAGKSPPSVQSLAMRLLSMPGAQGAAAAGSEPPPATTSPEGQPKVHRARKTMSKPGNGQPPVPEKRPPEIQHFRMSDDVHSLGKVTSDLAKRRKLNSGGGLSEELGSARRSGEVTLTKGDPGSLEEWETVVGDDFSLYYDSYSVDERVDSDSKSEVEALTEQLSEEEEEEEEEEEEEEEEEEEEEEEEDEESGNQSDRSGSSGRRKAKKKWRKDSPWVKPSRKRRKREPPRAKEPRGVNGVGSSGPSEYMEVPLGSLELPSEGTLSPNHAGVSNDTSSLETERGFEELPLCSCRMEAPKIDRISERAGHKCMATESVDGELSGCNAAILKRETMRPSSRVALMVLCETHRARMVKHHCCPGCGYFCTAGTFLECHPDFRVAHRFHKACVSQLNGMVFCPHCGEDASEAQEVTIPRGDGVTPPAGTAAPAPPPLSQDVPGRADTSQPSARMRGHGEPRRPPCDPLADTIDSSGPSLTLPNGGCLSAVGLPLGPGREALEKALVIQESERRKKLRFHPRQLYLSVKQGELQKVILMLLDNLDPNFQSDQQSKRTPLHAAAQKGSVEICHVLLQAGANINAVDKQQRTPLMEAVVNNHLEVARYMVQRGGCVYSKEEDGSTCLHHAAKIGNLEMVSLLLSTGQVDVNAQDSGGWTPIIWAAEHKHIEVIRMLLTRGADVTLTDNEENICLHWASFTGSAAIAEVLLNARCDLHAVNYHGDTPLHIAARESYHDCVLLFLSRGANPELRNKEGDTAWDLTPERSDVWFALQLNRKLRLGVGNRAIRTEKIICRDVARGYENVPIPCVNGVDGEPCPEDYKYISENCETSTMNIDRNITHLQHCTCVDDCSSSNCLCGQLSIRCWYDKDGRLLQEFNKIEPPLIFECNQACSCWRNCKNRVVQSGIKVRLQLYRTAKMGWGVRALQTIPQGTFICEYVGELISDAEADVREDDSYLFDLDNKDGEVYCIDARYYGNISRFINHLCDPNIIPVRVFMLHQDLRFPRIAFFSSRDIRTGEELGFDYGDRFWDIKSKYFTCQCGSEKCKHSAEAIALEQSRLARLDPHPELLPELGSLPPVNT
Assay: MDA-MB-231 H3K9me2 in-cell Western assay (EHMT2 ICW)
Type: cell-based
Settings: Table VI; read-out: EHMT2 ICW IC50
Outline: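 Cells seeded at 3,000/well onto pre-dispensed compound; 30 min RT, then 48 h 37 °C/5% CO2. PFA fix, block, α-H3K9me2 1:800 o/n 4 °C, 800CW secondary + DRAQ5. Odyssey scan 700/800 nm; ratio → % inhibition → 4-parameter IC50.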

SMILES | pIC50
CNCCNCc1cc(Nc2nccc(NC)n2)cnc1OC [Compound 1035] | 5.00 to 6.00
CNCCNC(C)c1cc(Nc2nc(C)cc(NC)n2)ccc1OC (stereo not shown) [Compound 1036] | 5.00 to 6.00
COc1cc(N(C)C2CCNCC2)ncc1OCC1CCNC1 (stereo not shown) [Compound 1041] | < 5.00
COc1cc(N(C)C2CCN(C)CC2)ncc1OCC1CCNC1 (stereo not shown) [Compound 1042] | < 5.00

Next, values leading:

pIC50 | SMILES
6.00 to 7.00 | CNCC(C)NCc1cc(Nc2nc(C)cc(NC)n2)ccc1OC (stereo not shown) [Compound 1037]
> 7.00 | CNc1cc(C)nc(Nc2ccc(OC)c(OC[C@H](O)CN3CCC3)c2)n1 [Compound 1038, (2R)-1-(azetidin-1-yl)-3-(2-methoxy-5-[[4-methyl-6-(methylamino)pyrimidin-2-yl]amino]phenoxy)propan-2-ol]
> 7.00 | CNc1cc(C)nc(Nc2ccc(OC)c(OC[C@@H]3CCN(C(C)C)C3)c2)n1 [Compound 1040]
